Measurements as given in patent publication US9670469B2, “UDP-glycosyltransferase derived from ginseng and use thereof” (KOREA ADVANCED INSTITUTE OF SCIENCE AND TECHNOLOGY, priority 2012, dated 2017).

Experiments:
PgUGT74A1 [1] = target: T1, PgUGT74A1 (Panax ginseng, UniProt A0A0A6ZFR4); experiment: In vitro glycosyltransferase assay with purified recombinant PgUGT74A1 and UDP-glucose; assay type: biochemical; settings: for ginsenoside into which the substrate is converted by PgUGT74A1: 30 μg enzyme, 5 mM ginsenoside, 50 mM UDP-glucose, 35° C., 12 hours
T1 construct: GST (N); made in house; host or cells: E. coli BL21-CodonPlus (DE3)-RIL
T1 sequence (A0A0A6ZFR4 1-451): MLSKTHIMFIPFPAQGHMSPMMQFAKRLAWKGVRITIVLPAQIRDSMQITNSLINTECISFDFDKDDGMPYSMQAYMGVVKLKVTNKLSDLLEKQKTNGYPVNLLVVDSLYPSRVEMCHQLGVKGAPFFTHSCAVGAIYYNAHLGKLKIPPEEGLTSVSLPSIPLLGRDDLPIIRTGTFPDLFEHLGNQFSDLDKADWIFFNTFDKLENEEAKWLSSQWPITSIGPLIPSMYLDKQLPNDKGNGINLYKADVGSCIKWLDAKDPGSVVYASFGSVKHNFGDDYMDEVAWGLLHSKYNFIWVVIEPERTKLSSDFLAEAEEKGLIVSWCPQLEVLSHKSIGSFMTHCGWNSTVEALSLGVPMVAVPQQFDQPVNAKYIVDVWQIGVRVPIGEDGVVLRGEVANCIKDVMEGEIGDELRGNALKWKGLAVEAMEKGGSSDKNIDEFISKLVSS
Procedure: (§1) A glycosyltransferase assay was performed in a reaction buffer (10 mM PBS buffer, pH 7) containing the purified PgUGT74A1 or PgUGT94B1 (30 μg), a ginsenoside compound (5 mM) and UDP-glucose (50 mM).
(§2) The reaction mixture was incubated at 35° C. for 12 hours, and then the products were analyzed by thin-layer chromatography (TLC) or high performance liquid chromatography (HPLC).
(§3) TLC analysis was performed using a mobile phase (acetone:methanol:DDW=65:35:10 vol/vol) and a 60F254 silica gel plate (Merck, Germany). The resolved product on the TLC plate was detected by spraying the plate with 10% (vol/vol) sulfuric acid (H2SO4) and heating it at 110° C. for 5 minutes.
(§4) HPLC analysis was performed using ODS (2) C18 column (Phenomenex, USA). Water and acetonitrile gradient application time; and a component ratio are as follows: at a flow rate of 1 ml per minute for 0 minute, 68% water and 32% acetonitrile; 8 minutes, 35% water and 65% acetonitrile; 12 minutes, 0% water and 100% acetonitrile; 20 minutes, 0% water and 100% acetonitrile; 20.1 minutes, 68% water and 32% acetonitrile; and 28 minutes, 68% water and 32% acetonitrile.
(§5) Ginsenosides were detected by using a UV-detector (Younglin, Korea) at a wavelength of 203 nm.
First, the recombinant PgUGT of Example 1, PgUGT74A1, was incubated with 10 different types of ginsenosides (PPD, C-K, Rh2, F2, Rg3, Rd, Rg2, Rh1, F1 and PPT) in the presence of UDP-glucose, and the products converted by the recombinant PgUGT were analyzed by TLC.

PgUGT94B1 [2] = target: T2, PgUGT94B1 (Panax ginseng, UniProt A0A0A6ZFY4); experiment: In vitro glycosyltransferase assay with purified recombinant PgUGT94B1 and UDP-glucose; assay type: biochemical; settings: 30 μg enzyme, 5 mM ginsenoside, 50 mM UDP-glucose, 35° C., 12 hours
T2 construct: GST (N); made in house; host or cells: E. coli BL21-CodonPlus (DE3)-RIL
T2 sequence (A0A0A6ZFY4 1-442): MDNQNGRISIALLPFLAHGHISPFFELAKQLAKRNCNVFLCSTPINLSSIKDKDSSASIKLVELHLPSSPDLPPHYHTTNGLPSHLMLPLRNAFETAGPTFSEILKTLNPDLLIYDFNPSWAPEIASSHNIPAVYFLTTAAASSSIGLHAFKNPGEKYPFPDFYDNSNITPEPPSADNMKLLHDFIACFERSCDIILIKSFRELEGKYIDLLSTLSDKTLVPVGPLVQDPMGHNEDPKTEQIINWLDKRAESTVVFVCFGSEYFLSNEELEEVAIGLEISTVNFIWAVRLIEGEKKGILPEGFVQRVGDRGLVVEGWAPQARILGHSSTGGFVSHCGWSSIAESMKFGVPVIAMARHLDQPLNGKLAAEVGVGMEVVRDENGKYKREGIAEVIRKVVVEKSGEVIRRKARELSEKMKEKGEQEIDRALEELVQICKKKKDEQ
Procedure: as §1, §2, §3, §4, §5
First, the recombinant PgUGT of Example 1, PgUGT94B1, was incubated with 10 different types of ginsenosides (PPD, C-K, Rh2, F2, Rg3, Rd, Rg2, Rh1, F1 and PPT) in the presence of UDP-glucose, and then the products converted by the recombinant PgUGT were analyzed by TLC.

PgUGT74A1 and PgUGT94B1 = experiment: Both enzymes reacted with the substrate in a single reaction tube, HPLC; assay type: biochemical, Panax ginseng; settings: UDP-Glc
Procedure: PPD (upper panel) or C-K (lower panel) was incubated with both of PgUGT74A1 and PgUGT94B1 in the presence of UDP-Glc. Then the reaction mixture was analyzed by HPLC. […] Rg3 and Rd converted by the above two enzymes are marked as black triangles;
as §1, §2, §4, §5
In order to confirm this, the above two enzymes were reacted with PPD as a substrate in a single reaction tube. […] In addition, the two enzymes were reacted with C-K as a substrate in a single reaction tube.

ginseng = experiment: Concentrations of 4 major ginsenosides after spraying MeJA onto the leaf of ginseng; assay type: in vivo, Panax ginseng
Text: MeJA was sprayed on the leaf everyday for a total of 5 days, and on the 6th day after the start of the treatment, samples were collected for the expression analysis. […] Error bars show a standard deviation (SD) of three biological replicates; and
(§6) The 15-month old ginseng grown in a growth chamber under LD conditions was collected, and MeJA was sprayed onto its leaves everyday for a total of 5 days. To analyze expression level of the ginsenoside biosynthetic genes, samples were collected on the 6th days. […] However, expression of PgPPTS was not induced by MeJA under the conditions of the present invention.
In this regard, the concentrations of 4 major ginsenosides were measured after spraying MeJA onto the leaf of ginseng. The treatment of MeJA increased the concentrations of two PPD-type ginsenosides, Rd and Rb1, by 1.55 and 1.14 times respectively (FIG. 6c). In addition, the treatment of MeJA increased the concentrations of two PPT-type ginsenosides, Rg1 and Re, by 2.61 and 1.45 times respectively.

[3] = system: PgPPDS (protopanaxadiol synthase); experiment: Quantitative RT-PCR of PgPPDS in ginseng leaf after MeJA spraying; assay type: in vivo, Panax ginseng; settings: ginseng leaves, 200 μM MeJA sprayed everyday for 5 days, sampled 6th day; normalized to tubulin
Procedure: (§7) Total RNA was isolated from the leaf or root of 15-month-old ginseng using a spectrum plant total RNA kit (Sigma-Aldrich). 200 μM methyl jasmonate (MeJA) was sprayed onto the leaves of ginseng everyday for a total of 5 days, and samples were collected on the 6th day. The 1 μg of total RNA was used for cDNA synthesis.
(§8) Expression levels of different genes were examined by a quantitative RT-PCR using the primer sets listed in the following Table 2, and the results were normalized to the expression level of tubulin.
as §6

PgUGT94B1 [4] = experiment: Quantitative RT-PCR of PgUGT94B1 in ginseng leaf after MeJA spraying; assay type: in vivo, Panax ginseng; settings: ginseng leaves, 200 μM MeJA sprayed everyday for 5 days, sampled 6th day; normalized to tubulin
Procedure: as §7, §8, §6

[5] = system: PgPPTS (protopanaxatriol synthase); experiment: Quantitative RT-PCR of PgPPTS in ginseng leaf after MeJA spraying; assay type: in vivo, Panax ginseng; settings: ginseng leaves, 200 μM MeJA sprayed everyday for 5 days, sampled 6th day; normalized to tubulin
Procedure: as §7, §8, §6

[6] = system: PgDS (dammarenediol-II synthase); experiment: Quantitative RT-PCR of PgDS in ginseng leaf after MeJA spraying; assay type: in vivo, Panax ginseng; settings: ginseng leaves, 200 μM MeJA sprayed everyday for 5 days, sampled 6th day; normalized to tubulin
Procedure: as §7, §8, §6

PgUGT74A1 [7] = experiment: Quantitative RT-PCR of PgUGT74A1 in ginseng leaf after MeJA spraying; assay type: in vivo, Panax ginseng; settings: ginseng leaves, 200 μM MeJA sprayed everyday for 5 days, sampled 6th day; normalized to tubulin
Procedure: as §7, §8, §6

Compound | ginsenoside into which the substrate is converted by PgUGT74A1 (PgUGT74A1 [1]; HPLC) | ginsenoside into which the substrate is converted by PgUGT94B1 (PgUGT94B1 [2]; HPLC) | ginsenoside into which the substrate is converted by PgUGT94B1 (PgUGT94B1 [2]; TLC) | ginsenoside into which the substrate is converted by PgUGT74A1 (PgUGT74A1 [1]; TLC) | ginsenoside into which the substrate is converted by PgUGT74A1 plus PgUGT94B1 (PgUGT74A1 and PgUGT94B1) | other results
CC(C)=CCC[C@](C)(O)[C@H]1CC[C@]2(C)[C@@H]1[C@H](O)C[C@@H]1[C@@]3(C)CC[C@H](O[C@@H]4O[C@H](CO)[C@@H](O)[C@H](O)[C@H]4O)C(C)(C)[C@@H]3CC[C@]12C [ginsenoside Rh2] | did not convert | ginsenoside Rg3 | ginsenoside Rg3 |  |  | 
CC(C)=CCC[C@](C)(O[C@@H]1O[C@H](CO)[C@@H](O)[C@H](O)[C@H]1O)[C@H]1CC[C@]2(C)[C@@H]1[C@H](O)C[C@@H]1[C@@]3(C)CC[C@H](O[C@@H]4O[C@H](CO)[C@@H](O)[C@H](O)[C@H]4O)C(C)(C)[C@@H]3CC[C@]12C [ginsenoside F2] | did not convert | Rd | ginsenoside Rd |  |  | 
CC(C)=CCC[C@](C)(O)[C@H]1CC[C@]2(C)[C@@H]1[C@H](O)C[C@@H]1[C@@]3(C)CC[C@H](O)C(C)(C)[C@@H]3[C@@H](O)C[C@]12C [PPT, Protopanaxatriol] |  |  |  |  |  | glycosylation by PgUGT74A1 of the hydroxyl groups at the C-3, C-6, C-12 and C-20 positions (PgUGT74A1 [1]; regioselectivity, PPT): not glycosylated
CC(C)=CCC[C@](C)(O[C@@H]1O[C@H](CO)[C@@H](O)[C@H](O)[C@H]1O)[C@H]1CC[C@]2(C)[C@@H]1[C@H](O)C[C@@H]1[C@@]3(C)CC[C@H](O)C(C)(C)[C@@H]3CC[C@]12C [C-K, Compound K] |  | did not convert |  | ginsenoside F2 | Rd | 
CC/C=C\C[C@H]1C(=O)CC[C@@H]1CC(=O)OC [MeJA, Methyl (1R,2R)-3-Oxo-2-(2Z)-2-pentenyl-cyclopentaneacetate] |  |  |  |  |  | increase of the concentration of ginsenoside Rb1 (ginseng; PPD-type ginsenoside): 1.14 times; increase of the concentration of ginsenoside Rd (ginseng; PPD-type ginsenoside): 1.55 times; increase of the concentration of ginsenoside Re (ginseng; PPT-type ginsenoside): 1.45 times; increase of the concentration of ginsenoside Rg1 (ginseng; PPT-type ginsenoside): 2.61 times; expression of PgPPDS [3]: enhanced; expression level of PgUGT94B1 (PgUGT94B1 [4]): higher expression level; expression of PgPPTS [5]: not induced; expression of PgDS [6]: enhanced; expression level of PgUGT74A1 (PgUGT74A1 [7]): higher expression level
CC(C)=CCCC(C)(O)[C@H]1CC[C@]2(C)[C@@H]1[C@H](O)C[C@@H]1[C@@]3(C)CC[C@H](O)C(C)(C)[C@@H]3CC[C@]12C (stereo in doubt) [PPD, Protopanaxadiol] | ginsenoside Rh2 | did not convert |  | ginsenoside Rh2 | Rg3 | glycosylation by PgUGT74A1 of the hydroxyl groups at the C-12 and C-20 positions (PgUGT74A1 [1]; regioselectivity, positions other than C-3 of PPD): not glycosylated
